From patent publication US20070117743A1, “New antitumoral compounds” (priority 2003, published 2007)
Read-outs that look alike come from different tables or passages of the source. Where a SMILES comes first, the peptide text is derived from it. Bridges are numbered along the chain shown (N, C = ends). [ ]: non-standard residue; d: D form. The star is where a group is joined. d(aIle) = CC[C@H](C)[C@@H](N)C(=O)O; d(aThr) = C[C@@H](O)[C@@H](N)C(=O)O; hCha = N[C@@H](CCC1CCCCC1)C(=O)O; Hexanoyl(5-Me) = CC(C)CCCC(=O)*; Orn = NCCC[C@H](N)C(=O)O; Dhb = C/C=C(\N)C(=O)O

Columns and labels:
Assay type in all cases: cell-based, human
[1] = tested on: A-549; test: SRB colorimetric assay of cell growth and viability, A-549; details: 48 hours exposure; for GI50: read-out: GI50 A-549; for CC50: read-out: LC50 A-549
[2] = tested on: SK-MEL-28; test: SRB colorimetric assay of cell growth and viability, SK-MEL-28; details: 48 hours exposure; for CC50: read-out: LC50 MEL-28
[3] = tested on: HT-29; test: SRB colorimetric assay of cell growth and viability, HT-29; details: 48 hours exposure; for GI50: read-out: GI50 HT-29; for CC50: read-out: LC50 HT-29
[4] = tested on: LoVo; test: SRB colorimetric assay of cell growth and viability, LoVo; details: 48 hours exposure; for CC50: read-out: LC50 LOVO
[5] = tested on: LoVo-Dox; test: SRB colorimetric assay of cell growth and viability, LoVo-Dox; details: 48 hours exposure; for CC50: read-out: LC50 LOVO-DOX
Summary of the method: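 First, 5×10^3 cells per well attach for 18 hours in RPMI 1640 with 10% FBS at 37° C and 5% CO2. Next, samples spanning 10 to 10^−8 μg/mL are added for 48 hours. Finally, cells are fixed with TCA, stained with SRB for 10 minutes and read at 490 nm.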

[6] = tested on: DU-145; test: SRB colorimetric assay of cell growth and viability, DU-145; details: 48 hours exposure
[7] = tested on: LNCaP; test: SRB colorimetric assay of cell growth and viability, LNCaP; details: 48 hours exposure; for GI50: read-out: GI50 LN-caP; for CC50: read-out: LC50 LN-caP
[8] = tested on: SK-BR-3; test: SRB colorimetric assay of cell growth and viability, SK-BR-3; details: 48 hours exposure
[9] = tested on: IGROV-1; test: SRB colorimetric assay of cell growth and viability, IGROV-1; details: 48 hours exposure
[10] = tested on: IGROV-ET; test: SRB colorimetric assay of cell growth and viability, IGROV-ET; details: 48 hours exposure; for CC50: read-out: LC50 IGROV-ET
[11] = tested on: HeLa; test: SRB colorimetric assay of cell growth and viability, HeLa; details: 48 hours exposure; for CC50: read-out: LC50 HELA
[12] = tested on: HeLa-APL; test: SRB colorimetric assay of cell growth and viability, HeLa-APL; details: 48 hours exposure; for CC50: read-out: LC50 HELA-APL
[13] = tested on: K-562; test: SRB colorimetric assay of cell growth and viability, K-562; details: 48 hours exposure; for CC50: read-out: LC50 K-562
[14] = tested on: PANC-1; test: SRB colorimetric assay of cell growth and viability, PANC-1; details: 48 hours exposure; for CC50: read-out: LC50 PANC-1

## C/C=C1\NC(=O)[C@H](Cc2c[nH]c3ccccc23)NC(=O)[C@@H](C(C)C)NC(=O)[C@@H]([C@@H](C)CC)NC(=O)[C@H](NC(=O)[C@H](NC(=O)[C@H](CCCN)NC(=O)[C@H]2CCCN2C(=O)[C@H](NC(=O)[C@@H](NC(=O)[C@@H](NC(=O)[C@H](NC(=O)CCCC(C)C)C(C)C)[C@@H](C)O)C(C)C)C(C)C)[C@@H](C)CC)[C@@H](C)OC(=O)[C@H](C(C)C)NC1=O [Compound 68, [Trp^3]-KF] ({Hexanoyl(5-Me)}-[dV]TV[dV][dP][Orn][d(aIle)][d(aThr)][d(aIle)][dV]W[Dhb]V; ester 8-C)
[1]; SRB
  TGI A-549: 2.83E−06 Molar
  GI50: 1560 nM
  CC50: 5120 nM
[2]; SRB
  GI50: 1250 nM
  TGI MEL-28: 2.17E−06 Molar
  CC50: 3770 nM
[3]; SRB
  TGI HT-29: 1.40E−06 Molar
  GI50: 512 nM
  CC50: 3660 nM
[4]; SRB
  GI50: 337 nM
  TGI LOVO: 9.49E−07 Molar
  CC50: 2620 nM
[5]; SRB
  GI50: 281 nM
  TGI LOVO-DOX: 6.47E−07 Molar
  CC50: 2530 nM
[6]; SRB
  GI50: 470 nM
  LC50 (concentration causing 50% net cell kill): 2850 nM
  TGI DU-145: 1.21E−06 Molar
[7]; SRB
  TGI LN-caP: 2.36E−06 Molar
  GI50: 1050 nM
  CC50: 5290 nM
[8]; SRB
  GI50: 150 nM
  LC50: 655 nM
  TGI SK-BR-3: 3.13E−07 Molar
[9]; SRB
  GI50: 87 nM
  LC50 (concentration causing 50% net cell killing): 453 nM
  TGI IGROV: 1.98E−07 Molar
[10]; SRB
  GI50: 150 nM
  TGI IGROV-ET: 2.73E−07 Molar
  CC50: 499 nM
[11]; SRB
  GI50: 1030 nM
  TGI HELA: 2.05E−06 Molar
  CC50: 4040 nM
[12]; SRB
  GI50: 943 nM
  TGI HELA-APL: 1.90E−06 Molar
  CC50: 3820 nM
[13]; SRB
  GI50: 3700 nM
  TGI K-562: 6.59E−06 Molar
  CC50: 6590 nM
[14]; SRB
  GI50: 6590 nM
  TGI PANC-1: 6.59E−06 Molar
  CC50: 6590 nM

## C/C=C1\NC(=O)[C@H](CCC2CCCCC2)NC(=O)[C@@H](C(C)C)NC(=O)[C@@H]([C@@H](C)CC)NC(=O)[C@H](NC(=O)[C@H](NC(=O)[C@H](CCCN)NC(=O)[C@H]2CCCN2C(=O)[C@H](NC(=O)[C@@H](NC(=O)[C@@H](NC(=O)[C@H](NC(=O)CCCC(C)C)C(C)C)[C@@H](C)O)C(C)C)C(C)C)[C@@H](C)CC)[C@@H](C)OC(=O)[C@H](C(C)C)NC1=O [Compound 63, 5-MeHex-D-Val-Thr-Val-D-Val-D-Pro-Orn-D-allo-Ile-cyclo[D-allo-Thr-D-alo-Ile-D-Val-hCh-(Z)-Dhb-Val]] ({Hexanoyl(5-Me)}-[dV]TV[dV][dP][Orn][d(aIle)][d(aThr)][d(aIle)][dV][hCha][Dhb]V; ester 8-C)
[1]; A-549
  TGI A-549: 1.60E−06 Molar
  GI50: 728 nM
  CC50: 3480 nM
[2]; SRB
  GI50: 828 nM
  TGI MEL-28: 1.77E−06 Molar
  CC50: 3790 nM
[3]; HT-29
  TGI HT-29: 3.22E−07 Molar
  GI50: 132 nM
  CC50: 1130 nM
[4]; LOVO
  GI50: 122 nM
  TGI LOVO: 2.40E−07 Molar
  CC50: 469 nM
[5]; LOVO-DOX
  GI50: 130 nM
  TGI LOVO-DOX: 2.56E−07 Molar
  CC50: 502 nM
[6]; SRB
  GI50: 119 nM
  LC50 (concentration causing 50% net cell kill): 1550 nM
  TGI DU-145: 4.25E−07 Molar
[7]; SRB
  TGI LN-caP: 1.21E−06 Molar
  GI50: 336 nM
  CC50: 2850 nM
[8]; SRB
  GI50: 74.8 nM
  LC50: 465 nM
  TGI SK-BR-3: 1.86E−07 Molar
[9]; SRB
  GI50: 128 nM
  LC50 (concentration causing 50% net cell killing): 2000 nM
  TGI IGROV: 4.29E−07 Molar
[10]; SRB
  GI50: 76.1 nM
  TGI IGROV-ET: 2.01E−07 Molar
  CC50: 529 nM
[11]; HELA
  GI50: 175 nM
  TGI HELA: 4.99E−07 Molar
  CC50: 2060 nM
[12]; HELA-APL
  GI50: 292 nM
  TGI HELA-APL: 1.09E−06 Molar
  CC50: 3230 nM
[13]; K-562
  GI50: 1480 nM
  TGI K-562: 2.63E−06 Molar
  CC50: 4690 nM
[14]; PANC-1
  GI50: 1050 nM
  TGI PANC-1: 2.10E−06 Molar
  CC50: 4210 nM

## C/C=C1\NC(=O)[C@H](Cc2ccccc2)NC(=O)[C@@H](C(C)C)NC(=O)[C@@H]([C@@H](C)CC)NC(=O)[C@H](NC(=O)[C@H](NC(=O)[C@H](CCCN)NC(=O)[C@H]2CCCN2C(=O)[C@H](NC(=O)[C@@H](NC(=O)[C@@H](NC(=O)[C@H](NC(=O)CCCCCCCCCC)C(C)C)[C@@H](C)O)C(C)C)C(C)C)[C@@H](C)CC)[C@@H](C)OC(=O)[C@H](C(C)C)NC1=O [Compound 15, [Und^14]-KF]
[1]
  TGI A-549: 3.39E−07 Molar
  GI50: 143 nM
  CC50: 1690 nM
[2]
  GI50: 169 nM
  TGI MEL-28: 4.45E−07 Molar
  CC50: 2040 nM
[3]
  TGI HT-29: 2.70E−07 Molar
  GI50: 127 nM
  CC50: 574 nM
[4]
  GI50: 117 nM
  TGI LOVO: 2.67E−07 Molar
  CC50: 604 nM
[5]
  GI50: 40.8 nM
  TGI LOVO-DOX: 1.65E−07 Molar
  CC50: 478 nM
[6]
  GI50: 162 nM
  LC50 (concentration causing 50% net cell kill): 1040 nM
  TGI DU-145: 3.53E−07 Molar
[7]
  TGI LN-caP: 1.44E−06 Molar
  GI50: 529 nM
  CC50: 3480 nM
[8]
  GI50: 26.7 nM
  LC50: 468 nM
  TGI SK-BR-3: 7.43E−08 Molar
[9]
  GI50: 158 nM
  LC50 (concentration causing 50% net cell killing): 1540 nM
  TGI IGROV: 3.72E−07 Molar
[10]
  GI50: 235 nM
  TGI IGROV-ET: 8.41E−07 Molar
  CC50: 3340 nM
[11]
  GI50: 120 nM
  TGI HELA: 2.65E−07 Molar
  CC50: 588 nM
[12]
  GI50: 229 nM
  TGI HELA-APL: 8.47E−07 Molar
  CC50: 3550 nM
[13]
  GI50: 1150 nM
  TGI K-562: 2.18E−06 Molar
  CC50: 4100 nM
[14]
  GI50: 1230 nM
  TGI PANC-1: 2.28E−06 Molar
  CC50: 4200 nM

## C/C=C1\NC(=O)[C@H](Cc2ccccc2)NC(=O)[C@@H](C(C)C)NC(=O)[C@@H]([C@@H](C)CC)NC(=O)[C@H](NC(=O)[C@H](NC(=O)[C@H](CCCN)NC(=O)[C@H]2CCCN2C(=O)[C@H](NC(=O)[C@@H](NC(=O)[C@@H](NC(=O)[C@H](NC(=O)CC[C@H](C)CC)C(C)C)[C@@H](C)O)C(C)C)C(C)C)[C@@H](C)CC)[C@@H](C)OC(=O)[C@H](C(C)C)NC1=O [Compound 16, [(4R)-MeHex^14]-KF]
[1]
  TGI A-549: 2.26E−06 Molar
  GI50: 1200 nM
  CC50: 4240 nM
[2]
  GI50: 1140 nM
  TGI MEL-28: 2.09E−06 Molar
  CC50: 3800 nM
[3]
  TGI HT-29: 1.54E−06 Molar
  GI50: 738 nM
  CC50: 3220 nM
[4]
  GI50: 248 nM
  TGI LOVO: 7.78E−07 Molar
  CC50: 2280 nM
[5]
  GI50: 288 nM
  TGI LOVO-DOX: 7.71E−07 Molar
  CC50: 2190 nM
[6]
  GI50: 1200 nM
  LC50 (concentration causing 50% net cell kill): 3820 nM
  TGI DU-145: 2.14E−06 Molar
[7]
  TGI LN-caP: 2.46E−06 Molar
  GI50: 1500 nM
  CC50: 4040 nM
[8]
  GI50: 1250 nM
  LC50: 3860 nM
  TGI SK-BR-3: 2.20E−06 Molar
[9]
  GI50: 941 nM
  LC50 (concentration causing 50% net cell killing): 3500 nM
  TGI IGROV: 1.81E−06 Molar
[10]
  GI50: 805 nM
  TGI IGROV-ET: 1.62E−06 Molar
  CC50: 3260 nM
[11]
  GI50: 1050 nM
  TGI HELA: 1.93E−06 Molar
  CC50: 3550 nM
[12]
  GI50: 1560 nM
  TGI HELA-APL: 3.47E−06 Molar
  CC50: ≥ 6770 nM
[13]
  GI50: 3730 nM
  TGI K-562: 6.77E−06 Molar
  CC50: ≥ 6770 nM
[14]
  GI50: 4700 nM
  TGI PANC-1: 4.24E−06 Molar
  CC50: 4240 nM
